Measured values published in patent US20240279205A1, “NOVEL BENZIMIDAZOLE DERIVATIVE” (Carna Biosciences, Inc., priority 2020, published 2024).
Structures can show the parent of a compound that is named as a salt.

What was measured:
human STING (hSTING) = target: T1, human STING (hSTING) (Homo sapiens, UniProt Q86WV6); assay: Inhibition test of intracellular human STING (hSTING) pathway using SEAP reporter cells (HEK-Blue ISG), stimulation with Compound 3; type: cell-based; parameters: hSTING inhibitory activity: scale not given here; conditions: Compound 3 10 nM stimulation, 21 hours
T1 construct: host or cells: HEK-Blue ISG cells (HEK293-derived SEAP reporter line)
T1 sequence (Q86WV6 whole entry H232R): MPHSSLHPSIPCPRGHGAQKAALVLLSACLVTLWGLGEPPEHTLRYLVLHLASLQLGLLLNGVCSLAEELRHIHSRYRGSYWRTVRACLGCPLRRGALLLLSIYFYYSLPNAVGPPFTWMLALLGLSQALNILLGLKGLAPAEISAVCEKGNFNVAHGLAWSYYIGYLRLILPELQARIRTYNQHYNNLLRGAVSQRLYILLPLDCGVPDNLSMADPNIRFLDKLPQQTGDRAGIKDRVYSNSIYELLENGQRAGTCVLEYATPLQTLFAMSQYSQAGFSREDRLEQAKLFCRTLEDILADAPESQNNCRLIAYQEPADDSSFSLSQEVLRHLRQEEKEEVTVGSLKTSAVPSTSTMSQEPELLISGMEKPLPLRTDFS
Procedure, shortened: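 IC50 derived by regressing inhibition rate against log compound concentration (0.1 to 10 μM final, added 1 h before agonist), with 0% and 100% set by wells without and with 10 nM Compound 3. SEAP colour reaction read after 21 h stimulation of HEK-Blue ISG reporter cells.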

[1] = tested on: STING activation (IFN-β production in THP-1 cells); assay: Human IFN-β production inhibition test by cGAMP stimulation in THP-1 cells; type: cell-based; parameters: IFN-β bioinhibitory activity: scale not given here; conditions: 2'3'-cGAMP transfection, 18 hours, IFN-β ELISA; for IC50: Homo sapiens, read-out: IFN-β bioinhibitory activity
Experimental: Human IFN-β production inhibition test by cGAMP stimulation
The inhibitory activity of test compounds against STING activation was evaluated by measuring the amount of IFN-β produced when human monocytic cell line THP-1 cells were stimulated with the endogenous ligand cGAMP.
After seeding THP-1 cells (ATCC) in a 96-well plate, PMA (Santa Cruz Biotechnology) adjusted to a concentration of 100 nM after addition was added, and incubated at 37° C. in a 5% CO2 incubator. It was cultured overnight (RPMI1640 medium containing 10% FBS, 50 U/mL penicillin/50 μg/mL streptomycin). A test compound solution adjusted to a final concentration of 0.001 to 1 μM was added to each well of this plate and cultured for 1 hour in a CO2 incubator (DMSO final concentration 0.1%). 0.12 μg/well of 2′3′-cGAMP (Invivogen, #tlrl-nacga23) was introduced into the cells by transfection using Lipofectamine2000 (Invitrogen) and cultured in a CO incubator for an additional 18 hours. After collecting the culture supernatant from each well, the amount of human IFN-β produced in the culture supernatant was measured by ELISA using R&D human IFN-β Duoset (R&D Systems).
Assuming that the human IFN-β production amount of the test compound-free and cGAMP-added group is 100%, and the human IFN-β production amount of the test compound-free and cGAMP-free group is 0%, the IC50 value was determined by regression analysis of the inhibitory rate determined from the amount of human IFN-β production at each compound concentration and the concentration of the test compound (logarithm).

hSTING inhibitory activity (human STING (hSTING)) | IC50 [1] | Structure (SMILES) | IFN-β bioinhibitory activity [1]
* * | ≥ 1000 nM | COc1ccnc2c(Nc3nc4cc(Oc5ccccc5)ccc4[nH]3)c[nH]c12 [Embodiment 77, N-(7-Methoxy-1H-pyrrolo[3,2-b]pyridin-3-yl)-5-phenoxy-1H-benzo[d]imidazol-2-amine formate] | 
* * | ≥ 1000 nM | Fc1cc2nc(Nc3c[nH]c4ccc(Cl)nc34)[nH]c2cc1F [Embodiment 78, N-(5-Chloro-1H-pyrrolo[3,2-b]pyridin-3-yl)-5,6-difluoro-1H-benzo[d]imidazol-2-amine] | 
* * | 100 to 1000 nM | Cc1cc2nc(Nc3c[nH]c4ccc(Br)nc34)[nH]c2cc1C [Embodiment 79, N-(5-bromo-1H-pyrrolo[3,2-b]pyridin-3-yl)-5,6-dimethyl-1H-benzo[d]imidazol-2-amine] | 
* * * |  | Brc1ccc2[nH]cc(Nc3nc4cc(I)ccc4[nH]3)c2n1 [Embodiment 80, N-(5-bromo-1H-pyrrolo[3,2-b]pyridin-3-yl)-5-iodo-1H-benzo [d]imidazol-2-amine] | * * *
* * |  | Fc1ccc2[nH]c(Nc3c[nH]c4ccc(Cl)nc34)nc2c1F [Embodiment 82, N-(5-Chloro-1H-pyrrolo[3,2-b]pyridin-3-yl)-4,5-difluoro-1H-benzo[d]imidazol-2-amine] | * *
* * | ≥ 1000 nM | Clc1cc(Cl)c2nc(Nc3c[nH]c4ccc(Cl)nc34)[nH]c2c1 [Embodiment 84, 4,6-dichloro-N-(5-chloro-1H-pyrrolo[3,2-b]pyridin-3-yl)-1H-benzo[d]imidazol-2-amine] | 
* * | ≥ 1000 nM | Fc1cc(F)c2nc(Nc3c[nH]c4ccc(Cl)nc34)[nH]c2c1 [Embodiment 86, N-(5-Chloro-1H-pyrrolo[3,2-b]pyridin-3-yl)-4,6-difluoro-1H-benzo[d]imidazol-2-amine formate] | 
* * | 100 to 1000 nM | Cc1cc(C)c2nc(Nc3c[nH]c4ccc(Cl)nc34)[nH]c2c1 [Embodiment 87, N-(5-Chloro-1H-pyrrolo[3,2-b]pyridin-3-yl)-4,6-dimethyl-1H-benzo[d]imidazol-2-amine] | 
* * * | 100 to 1000 nM | Clc1cc2nc(Nc3c[nH]c4ccc(Br)nc34)[nH]c2cc1Cl [Embodiment 88, N-(5-bromo-1H-pyrrolo[3,2-b]pyridin-3-yl)-5,6-dichloro-1H-benzo[d]imidazol-2-amine] | 
* * * | 100 to 1000 nM | FC(F)(F)c1cccc2[nH]c(Nc3c[nH]c4ccc(Br)nc34)nc12 [Embodiment 89, N-(5-bromo-1H-pyrrolo[3,2-b]pyridin-3-yl)-4-(trifluoromethyl)-1H-benzo[d]imidazol-2-amine] | 
* * * | 100 to 1000 nM | CCCCn1c(Nc2c[nH]c3ccc(Br)nc23)nc2ccc(Oc3ccccc3)cc21 [Embodiment 91, N-(5-bromo-1H-pyrrolo[3,2-b]pyridin-3-yl)-1-butyl-6-phenoxy-1H-benzo[d]imidazol-2-amine] | 
* * * | 100 to 1000 nM | COCCn1c(Nc2c[nH]c3ccc(Br)nc23)nc2ccc(Oc3ccccc3)cc21 [Embodiment 93, N-(5-bromo-1H-pyrrolo[3,2-b]pyridin-3-yl)-1-(2-methoxyethyl)-6-phenoxy-1H-benzo[d]imidazol-2-amine] | 
* * * | 100 to 1000 nM | Clc1ccc2[nH]cc(Nc3nc4c(Cl)c(Cl)ccc4[nH]3)c2n1 [Embodiment 94, 4,5-dichloro-N-(5-chloro-1H-pyrrolo[3,2-b]pyridin-3-yl)-1H-benzo[d]imidazol-2-amine] | 
* * |  | Clc1ccc2[nH]cc(Nc3nc4cc(Br)ccc4[nH]3)c2n1 [Embodiment 95, 5-bromo-N-(5-chloro-1H-pyrrolo [3,2-b]pyridin-3-yl)-1H-benzo [d]imidazol-2-amine formate] | * * *
* * * |  | C=C(C)c1ccc2[nH]c(Nc3c[nH]c4ccc(Cl)nc34)nc2c1 [Embodiment 100, N-(5-chloro-1H-pyrrolo[3,2-b]pyridin-3-yl)-5-(prop-1-en-2-yl)-1H-benzo[d]imidazole-2-amine] | * * *
* * * |  | C=Cc1ccc2[nH]cc(Nc3nc4cc(Oc5ccccc5)ccc4[nH]3)c2n1 [Embodiment 101, 5-phenoxy-N-(5-vinyl-1H-pyrrolo [3,2-b]pyridin-3-yl)-1H-benzo [d]imidazol-2-amine] | * *
* * | 100 to 1000 nM | CCc1ccc2[nH]cc(Nc3nc4cc(Oc5ccccc5)ccc4[nH]3)c2n1 [Embodiment 103, N-(5-ethyl-1H-pyrrolo[3,2-b]pyridin-3-yl)-5-phenoxy-1H-benzo [d]imidazol-2-amine] | 
* * |  | CC(C)c1ccc2[nH]c(Nc3c[nH]c4ccc(Cl)nc34)nc2c1 [Embodiment 104, N-(5-Chloro-1H-pyrrolo[3,2-b]pyridin-3-yl)-5-isopropyl-1H-benzo[d]imidazol-2-amine] | * *
* * | ≥ 1000 nM | Cn1c(Nc2c[nH]c3ncc(Cl)cc23)nc2ccc(Oc3ccccc3)cc21 [Embodiment 108, N-(5-Chloro-1H-pyrrolo[2,3-b]pyridin-3-yl)-1-methyl-6-phenoxy-1H-benzo[d]imidazol-2-amine] | 
* * | 100 to 1000 nM | Cn1c(Nc2c[nH]c3ncc(Cl)cc23)nc2cc(C(F)(F)F)ccc21 [Embodiment 109, N-(5-Chloro-1H-pyrrolo[2,3-b]pyridin-3-yl)-1-methyl-5-(trifluoromethyl)-1H-benzo[d] imidazol-2-amine] | 
* * * |  | C#Cc1ccc2[nH]cc(Nc3nc4cc(Oc5ccccc5)ccc4[nH]3)c2n1 [Embodiment 111, N-(5-ethynyl-1H-pyrrolo[3,2-b]pyridin-3-yl)-5-phenoxy-1H-benzo[d]imidazol-2-amine formate] | * *
* * | 100 to 1000 nM | Clc1ccc2[nH]cc(Nc3nc4cc(C5CCOCC5)ccc4[nH]3)c2n1 [Embodiment 112, N-(5-chloro-1H-pyrrolo[3,2-b]pyridin-3-yl)-5-(tetrahydro-2H-pyran-4-yl)-1H-benzo[d]imidazole-2-amine] | 
* * * | ≥ 1000 nM | CCO/C=C/c1ccc2[nH]c(Nc3c[nH]c4ccc(Cl)nc34)nc2c1 [Embodiment 114, (E)-N-(5-chloro-1H-pyrrolo[3,2-b]pyridin-3-yl)-5-(2-ethoxyvinyl)-1H-benzo[d]imidazol-2-amine] | 
* * * | 100 to 1000 nM | CC(C)n1c(Nc2c[nH]c3ccc(Cl)nc23)nc2cc(Oc3ccccc3)ccc21 [Embodiment 116, N-(5-Chloro-1H-pyrrolo[3,2-b]pyridin-3-yl)-1-isopropyl-5-phenoxy-1H-benzo[d]imidazol-2-amine] | 
* * * | 100 to 1000 nM | CC(C)n1c(Nc2c[nH]c3ccc(Cl)nc23)nc2ccc(Oc3ccccc3)cc21 [Embodiment 117, N-(5-Chloro-1H-pyrrolo[3,2-b]pyridin-3-yl)-1-isopropyl-6-phenoxy-1H-benzo[d]imidazol-2-amine] | 
* * * | 100 to 1000 nM | Clc1ccc2[nH]cc(Nc3nc4cc(Oc5ccccc5)ccc4n3C3CC3)c2n1 [Embodiment 118, N-(5-Chloro-1H-pyrrolo[3,2-b]pyridin-3-yl)-1-cyclopropyl-5-phenoxy-1H-benzo[d]imidazol-2-amine] | 
* * * | 100 to 1000 nM | Clc1ccc2[nH]cc(Nc3nc4ccc(Oc5ccccc5)cc4n3C3CC3)c2n1 [Embodiment 119, N-(5-Chloro-1H-pyrrolo[3,2-b]pyridin-3-yl)-1-cyclopropyl-6-phenoxy-1H-benzo[d]imidazol-2-amine] | 
* * * | 100 to 1000 nM | Clc1ccc2[nH]cc(Nc3nc4cc(OC5CCCCC5)ccc4[nH]3)c2n1 [Embodiment 120, N-(5-Chloro-1H-pyrrolo[3,2-b]pyridin-3-yl)-5-(cyclohexyloxy)-1H-benzo[d]imidazol-2-amine formate] | 
* * * | 100 to 1000 nM | Cc1ccc2[nH]c(Nc3c[nH]c4ccc(Cl)nc34)nc2c1 [Embodiment 123, N-(5-chloro-1H-pyrrolo[3,2-b]pyridin-3-yl)-5-methyl-1H-benzo[d] imidazol-2-amine] | 
